Converted amounts (≈) assume the structure as drawn. The source made the active and inactive calls. The rule behind the calls is not given here.
How the values were obtained:
Pichia kudriavzevii = test: Antifungal activity against Candida krusei AS 2.1045 assessed as inhibition of fungal growth by CLSI protocol based microdilution method; type: functional
Candida albicans [1] = test: Antifungal activity against Candida albicans CPCC400616 assessed as inhibition of hyphae formation at 2 ug/ml incubated for 4 hrs by inverted microscopic analysis; type: functional, organism-based; conditions: dose 2.0 µg/ml
[2] = Stability in mouse plasma assessed as parent compound remaining measured at 180 mins; type: ADME, cell-free; conditions: read-out: Stability
Cryptococcus neoformans = test: Antifungal activity against Cryptococcus neoformans CGMCC2.3161 assessed as inhibition of fungal growth by CLSI protocol based microdilution method; type: functional
Candida albicans [3] = test: Antifungal activity against fluconazole-resistant Candida albicans 904 assessed as downregulation of ALS3 gene expression at 16 ug/ml incubated for 12 hrs by RT-PCR analysis; type: functional, organism-based; conditions: dose 16.0 µg/ml
Candida albicans [4] = test: Ratio of MFC for fungicidal activity against Candida albicans to MIC for antifungal activity against Candida albicans; type: functional
Candida albicans [5] = test: Antifungal activity against fluconazole-resistant Candida albicans 904 assessed as downregulation of EFG1 gene expression at 16 ug/ml incubated for 12 hrs by RT-PCR analysis; type: functional, organism-based; conditions: dose 16.0 µg/ml
Candida albicans [6] = test: Antifungal activity against fluconazole-resistant Candida albicans 904 assessed as inhibition of hyphae formation at 16 ug/ml incubated for 4 hrs by inverted microscopic analysis; type: functional, organism-based; conditions: dose 16.0 µg/ml
[7] = target: T1, Lanosterol 14-alpha demethylase (Candida albicans (strain SC5314 / ATCC MYA-2876) (Yeast), UniProt P10613); test: Inhibition of CYP51 in Candida albicans SC5314 assessed as increase in eburicol level at 0.031 ug/ml incubated for 24 hrs by GC-MS analysis relative to control; conditions: at 0.031 µg/mL
T1 sequence (P10613 whole entry): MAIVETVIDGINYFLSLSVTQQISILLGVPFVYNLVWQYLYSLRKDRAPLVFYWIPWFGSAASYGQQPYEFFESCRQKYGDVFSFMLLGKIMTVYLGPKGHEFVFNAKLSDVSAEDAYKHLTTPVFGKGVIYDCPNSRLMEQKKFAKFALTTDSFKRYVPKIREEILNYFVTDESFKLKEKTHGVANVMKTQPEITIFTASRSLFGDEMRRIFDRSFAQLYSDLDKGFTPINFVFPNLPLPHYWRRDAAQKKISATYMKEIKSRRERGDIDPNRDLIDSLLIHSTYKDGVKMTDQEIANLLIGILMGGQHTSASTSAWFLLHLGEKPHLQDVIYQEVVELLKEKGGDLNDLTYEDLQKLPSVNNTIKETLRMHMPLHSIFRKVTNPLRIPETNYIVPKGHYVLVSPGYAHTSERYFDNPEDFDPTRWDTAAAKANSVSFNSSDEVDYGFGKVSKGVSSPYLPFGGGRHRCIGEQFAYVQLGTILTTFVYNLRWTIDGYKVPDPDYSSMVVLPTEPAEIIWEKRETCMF

Candida albicans [8] = test: Antifungal activity against Candida albicans CPCC400616 assessed as downregulation of TEC1 gene expression at 2 ug/ml incubated for 12 hrs by RT-PCR analysis; type: functional, organism-based; conditions: dose 2.0 µg/ml
[9] = target: T2, Voltage-gated inwardly rectifying potassium channel KCNH6 (Homo sapiens, UniProt Q9H252); test: Inhibition of hERG2; type: toxicity
T2 sequence (Q9H252 whole entry): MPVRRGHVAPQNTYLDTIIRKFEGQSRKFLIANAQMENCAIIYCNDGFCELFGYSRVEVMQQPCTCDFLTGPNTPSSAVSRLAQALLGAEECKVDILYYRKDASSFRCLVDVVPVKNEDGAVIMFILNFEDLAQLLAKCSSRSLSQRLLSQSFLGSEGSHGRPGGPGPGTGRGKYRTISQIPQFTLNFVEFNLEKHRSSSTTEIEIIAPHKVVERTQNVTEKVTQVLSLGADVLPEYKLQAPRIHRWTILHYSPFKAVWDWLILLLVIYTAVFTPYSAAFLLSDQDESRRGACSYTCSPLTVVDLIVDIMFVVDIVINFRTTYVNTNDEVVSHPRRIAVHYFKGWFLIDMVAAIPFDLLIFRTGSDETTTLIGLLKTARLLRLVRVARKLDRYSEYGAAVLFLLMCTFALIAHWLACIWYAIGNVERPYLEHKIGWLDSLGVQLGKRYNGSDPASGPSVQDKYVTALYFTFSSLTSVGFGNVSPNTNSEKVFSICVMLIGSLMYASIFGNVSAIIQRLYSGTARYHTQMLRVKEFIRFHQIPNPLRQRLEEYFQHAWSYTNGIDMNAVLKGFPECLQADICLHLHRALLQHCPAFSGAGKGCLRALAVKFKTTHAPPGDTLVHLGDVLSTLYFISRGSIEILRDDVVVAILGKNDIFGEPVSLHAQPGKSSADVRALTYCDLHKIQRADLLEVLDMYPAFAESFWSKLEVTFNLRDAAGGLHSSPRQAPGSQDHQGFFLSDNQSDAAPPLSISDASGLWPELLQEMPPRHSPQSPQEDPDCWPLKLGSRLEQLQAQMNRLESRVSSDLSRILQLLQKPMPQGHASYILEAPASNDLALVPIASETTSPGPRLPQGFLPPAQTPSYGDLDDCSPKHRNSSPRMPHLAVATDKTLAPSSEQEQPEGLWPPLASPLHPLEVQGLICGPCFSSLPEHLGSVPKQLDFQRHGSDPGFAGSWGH

[10] = target: T1, Lanosterol 14-alpha demethylase; test: Inhibition of CYP51 in Candida albicans SC5314 assessed as increase in obtusifoliol level at 0.031 ug/ml incubated for 24 hrs by GC-MS analysis relative to control; conditions: at 0.031 µg/mL
Candida albicans [11] = test: Antifungal activity against Candida albicans SC5314 assessed as inhibition of fungal growth by CLSI protocol based microdilution method; type: functional
[12] = target: Voltage-gated inwardly rectifying potassium channel KCNH2 (Homo sapiens, UniProt Q12809); test: Inhibition of hERG1; type: toxicity
Sequence of Voltage-gated inwardly rectifying potassium channel KCNH2 (Q12809 whole entry): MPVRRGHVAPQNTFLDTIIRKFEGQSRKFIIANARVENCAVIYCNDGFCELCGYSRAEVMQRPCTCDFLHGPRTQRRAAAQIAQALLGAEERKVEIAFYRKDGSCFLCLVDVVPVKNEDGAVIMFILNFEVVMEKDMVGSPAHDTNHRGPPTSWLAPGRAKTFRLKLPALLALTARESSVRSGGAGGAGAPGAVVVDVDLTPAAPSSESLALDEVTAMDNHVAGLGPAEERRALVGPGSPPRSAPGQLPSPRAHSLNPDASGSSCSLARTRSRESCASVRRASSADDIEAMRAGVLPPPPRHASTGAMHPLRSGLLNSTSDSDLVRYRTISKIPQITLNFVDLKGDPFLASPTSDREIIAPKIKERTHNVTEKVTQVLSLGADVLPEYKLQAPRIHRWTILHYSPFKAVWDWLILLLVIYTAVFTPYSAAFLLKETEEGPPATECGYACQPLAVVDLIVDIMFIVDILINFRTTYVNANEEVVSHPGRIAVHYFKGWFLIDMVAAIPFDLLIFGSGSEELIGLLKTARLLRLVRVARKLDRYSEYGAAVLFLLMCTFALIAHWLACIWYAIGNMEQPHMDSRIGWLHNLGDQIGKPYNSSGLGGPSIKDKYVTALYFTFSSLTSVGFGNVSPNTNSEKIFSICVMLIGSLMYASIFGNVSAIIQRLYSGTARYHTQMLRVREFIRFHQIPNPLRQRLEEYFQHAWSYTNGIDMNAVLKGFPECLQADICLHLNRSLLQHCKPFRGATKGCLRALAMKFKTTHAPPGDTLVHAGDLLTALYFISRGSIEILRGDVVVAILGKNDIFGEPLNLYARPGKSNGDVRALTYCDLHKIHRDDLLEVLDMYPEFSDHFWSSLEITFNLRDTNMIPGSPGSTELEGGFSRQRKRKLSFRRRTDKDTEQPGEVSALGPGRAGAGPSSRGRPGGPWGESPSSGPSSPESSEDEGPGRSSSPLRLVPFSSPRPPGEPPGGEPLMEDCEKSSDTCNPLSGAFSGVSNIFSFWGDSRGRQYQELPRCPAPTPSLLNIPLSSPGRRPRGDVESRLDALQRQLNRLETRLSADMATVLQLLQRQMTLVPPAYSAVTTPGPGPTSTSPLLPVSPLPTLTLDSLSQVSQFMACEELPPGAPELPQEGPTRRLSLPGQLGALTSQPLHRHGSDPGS

Candida albicans [13] = test: Antifungal activity against fluconazole-resistant Candida albicans 904 assessed as increase in intracellular ROS production at 32 ug/ml incubated for 4 hrs by DCFH-DA probe based fluorescence spectrophotometric analysis; type: functional, organism-based; conditions: dose 32.0 µg/ml
Nakaseomyces glabratus = test: Antifungal activity against Candida glabrata assessed as inhibition of fungal growth by CLSI protocol based microdilution method; type: functional
Candida albicans [14] = test: Antifungal activity against fluconazole-resistant Candida albicans 904 assessed as downregulation of TEC1 gene expression at 16 ug/ml incubated for 12 hrs by RT-PCR analysis; type: functional, organism-based; conditions: dose 16.0 µg/ml
[15] = Acute toxicity in rat assessed as Low-observed adverse effect level at po administration; type: organism-based; conditions: in vivo
Candida albicans [16] = test: Antifungal activity against Candida albicans CPCC400616 assessed as downregulation of CPH1 gene expression at 2 ug/ml incubated for 12 hrs by RT-PCR analysis; type: functional, organism-based; conditions: dose 2.0 µg/ml
Candida albicans [17] = test: Antifungal activity against fluconazole-resistant Candida albicans 904 assessed as downregulation of MDR1 gene expression at 16 ug/ml incubated for 16 hrs by RT-PCR analysis; type: functional, organism-based; conditions: dose 16.0 µg/ml
Candida albicans [18] = test: Antifungal activity against fluconazole-resistant Candida albicans 904 assessed as inhibition of fungal biofilm formation incubated for 24 hrs by XTT assay; type: functional, organism-based
Candida albicans [19] = test: Antifungal activity against fluconazole-resistant Candida albicans 632 assessed as inhibition of fungal growth by CLSI based microdilution method; type: functional
Candida parapsilosis = test: Antifungal activity against Candida parapsilosis ATCC 22019 assessed as inhibition of fungal growth by CLSI protocol based microdilution method; type: functional; conditions: Lodderomyces parapsilosis
Candida albicans [20] = test: Fungicidal activity against Candida albicans assessed as inhibition of fungal growth measured after 48 hrs by CLSI protocol based microdilution method; type: functional
Candida albicans [21] = test: Antifungal activity against Candida albicans assessed as inhibition of fungal growth by CLSI protocol based microdilution method; type: functional
Aspergillus fumigatus = test: Antifungal activity against Aspergillus fumigatus CGMCC 3.7795 assessed as inhibition of fungal growth by CLSI protocol based microdilution method; type: functional
Candida albicans [22] = test: Antifungal activity against Candida albicans CPCC400616 assessed as downregulation of EFG1 gene expression at 2 ug/ml incubated for 12 hrs by RT-PCR analysis; type: functional, organism-based; conditions: dose 2.0 µg/ml
[23] = Metabolic stability in mouse liver microsomes assessed as half life; type: ADME, Microsome
Candida albicans [24] = test: Antifungal activity against Candida albicans CPCC400616 assessed as inhibition of fungal biofilm formation incubated for 24 hrs by XTT assay; type: functional, organism-based

## O=C(/C=C/c1ccc(COC(Cn2ccnc2)c2ccc(Cl)cc2Cl)cc1)Nc1ccc(Cl)cc1Cl (stereo not drawn)
Pichia kudriavzevii
  MIC: 0.5 µg/mL (≈ 0.891 µM)
Candida albicans [1]
  Activity: Active
[2]
  remaining at 3 h: 97.8%
Cryptococcus neoformans
  MIC: 0.5 µg/mL (≈ 0.891 µM)
Candida albicans [3]
  Activity: Active
Candida albicans [4]
  Ratio: 32
Candida albicans [5]
  Activity: Active
Candida albicans [6]
  Activity: Active
[7]
  inhibition (INH): Active
Candida albicans [8]
  Activity: Active
[9]
  inhibition (INH): Active
[10]
  inhibition (INH): Active
Candida albicans [11]
  MIC: 0.03 µg/mL (≈ 0.0534 µM)
[12]
  inhibition (INH): Active
Candida albicans [13]
  Activity: Active
Nakaseomyces glabratus
  MIC: 1 µg/mL (≈ 1.78 µM)
Candida albicans [14]
  Activity: Active
[15]
  LOAEL: 0.452 mg/kg
Candida albicans [16]
  Activity: Active
Candida albicans [17]
  Activity: Active
Candida albicans [18]
  Activity: Dose-Dependent Effect
Candida albicans [19]
  MIC: 0.25 µg/mL (≈ 0.445 µM)
Candida parapsilosis
  MIC: 0.06 µg/mL (≈ 0.107 µM)
Candida albicans [20]
  MFC: 32 µg/mL (≈ 57 µM)
Candida albicans [21]
  MIC: 1 µg/mL (≈ 1.78 µM)
Aspergillus fumigatus
  MIC: 0.5 µg/mL (≈ 0.891 µM)
Candida albicans [22]
  Activity: Active
[23]
  half-life: 29.6 min
Candida albicans [24]
  Activity: Dose-Dependent Effect

## CCCCNC(=O)/C=C/c1ccc(COC(Cn2ccnc2)c2ccc(Cl)cc2Cl)cc1 (stereo not drawn)
Pichia kudriavzevii
  MIC: 2 µg/mL (≈ 4.23 µM)
Candida albicans [1]
  Activity: Active
[2]
  remaining at 3 h: 102%
Cryptococcus neoformans
  MIC: 0.5 µg/mL (≈ 1.06 µM)
Candida albicans [3]
  Activity: Active
Candida albicans [4]
  Ratio: 16
Candida albicans [5]
  Activity: Active
Candida albicans [6]
  Activity: Active
[7]
  inhibition (INH): Active
Candida albicans [8]
  Activity: Active
[9]
  inhibition (INH): Active
[10]
  inhibition (INH): Active
Candida albicans [11]
  MIC: 0.015 µg/mL (≈ 0.0318 µM)
[12]
  inhibition (INH): Not Active
Candida albicans [13]
  Activity: Active
Nakaseomyces glabratus
  MIC: 4 µg/mL (≈ 8.47 µM)
Candida albicans [14]
  Activity: Active
[15]
  LOAEL: 1.138 mg/kg
Candida albicans [16]
  Activity: Active
Candida albicans [17]
  Activity: Active
Candida albicans [18]
  Activity: Dose-Dependent Effect
Candida albicans [19]
  MIC: 0.25 µg/mL (≈ 0.529 µM)
Candida parapsilosis
  MIC: 0.06 µg/mL (≈ 0.127 µM)
Candida albicans [20]
  MFC: 32 µg/mL (≈ 67.7 µM)
Candida albicans [21]
  MIC: 2 µg/mL (≈ 4.23 µM)
Aspergillus fumigatus
  MIC: 0.5 µg/mL (≈ 1.06 µM)
Candida albicans [22]
  Activity: Active
[23]
  half-life: 60.3 min
Candida albicans [24]
  Activity: Dose-Dependent Effect
